Experimental data taken from US9963482B2, “Phosphatidylinositol-3-kinase inhibitor and pharmaceutical composition” (Tohoku University, priority 2011, dated 2018).

Tests used:
Assay type in all cases: cell-based, human
RKO cells = experiment: Cytotoxic effect by MTT assay, RKO; settings: 24 hours, 5 nM to 500 nM
Protocol: (§1) The human culture cells used were colon cancer cell lines (HCT116, CO115, and RKO). HCT116 and RKO were obtained from American Type Culture Collection (ATCC). CO115 was obtained from John M. Mariadason (Ludwig Institute for Cancer Research, Melbourne, Australia). The cells were cultured at 37° C. in the presence of 5% CO2 by using RPMI1640 medium containing inactivated fetal bovine serum at the concentration of 10%.
(§2) After 24 hours, the number of live cells was determined by using “Cell counting kit-8” (trade name, manufactured by DOJINDO CO., LTD). […] The amount of formazan dye and the number of live cells are in proportional relationship, and by measuring the absorbance of formazan at 450 nm using a microplate reader (trade name: “SpectraMax M2e”, manufactured by Molecular Devices), the number of live cells was counted.

HCT116 cells = experiment: Cytotoxic effect by MTT assay, HCT116; settings: HCT116, 24 hours, 5 nM to 500 nM
Protocol: as §1, §2

CO115 cells = experiment: Cytotoxic effect by MTT assay, CO115; settings: CO115, 24 hours
Protocol: as §1, §2

[1] = test system: AKT pathway in PC3 (prostate cancer) cells; experiment: AKT pathway inhibition by Western blotting in PC3 cells; settings: 180 minutes
Protocol: PC3 cells were obtained from Cell Resource Center for Medical Research of Institute of Development, Aging, and Cancer, Tohoku University. The cells were cultured at 37° C. in the presence of 5% CO2 by using RPMI1640 medium containing inactivated fetal bovine serum at the concentration of 10%.
Western blotting was performed as follows. Various kinds of the cells treated with each compound were collected and lysed in a lysis buffer (500 mM Tris-HCl pH 7.5, 100 mM NaCl, 2 mM EDTA, 1 mM sodium orthovanadate, 1% NP-40, and 1% protease inhibitor cocktail, manufactured by SIGMA-ALDRICH). After centrifugation, the supernatants were collected.
The followings were used as primary antibodies.
As a secondary antibody, “Alexa Fluor680IgG” (trade name, manufactured by Invitrogen) was used. By using “Odyssey Infrared Imaging System” (trade name, manufactured by LI-COR), expression of the protein of interest was determined.

CC(C)[C@H]1NC(=O)CC2/C=C/CCSSCC(NC1=O)C(=O)N[C@H](Cc1cccc3ccccc13)C(=O)NCC(=O)O2 (some centres unmarked) [FK-A11] was tested, and the cell death (RKO cells) was “significant cell death”, the cell death (HCT116 cells) was “significant cell death” and the cell death (CO115 cells; from 500 nM) was “strong cell death”. The cell death (CO115 cells; up to 50 nM) was “resistant” and the “inhibition of AKT phosphorylation compared with FK-A5 and FK228” value [1] was “occurred at a lower concentration than FK-A5 and FK228”.
